From patent US9687569B2, “Theranostic nanoparticle and methods for making and using the nanoparticle” (priority 2012, dated 2017)

How the values were obtained:
C6-ADR cells [1] = assay: Intracellular DOX quantification; type: cell-based, rat; conditions: for intracellular concentration of DOX: 1000 ng/mL DOX
Method: Concurrently, intracellular concentration of DOX was determined (FIG. 6B) by UV analysis.

C6-ADR cells [2] = assay: Fluorescence and confocal imaging of intracellular DOX; type: cell-based, rat
Method: The internalization pathway of free DOX and NP-DOX were investigated by labeling endosomal compartments of cells with calcein after incubation with cells for 4 h.
C6-ADR cells were plated at 500,000 cells per well in 6-well plates containing 22×22 mm glass cover slips the night before treatment. Cells were treated with 1000 ng/mL free DOX or NP-DOX with equimolar concentration of DOX in 2 mL fully supplemented DMEM for 4 hrs before cells were washed three times with PBS and 2 mL fresh fully supplemented media added. After 24 hrs, cells were washed three times with PBS, and fixed in 4% formaldehyde (Polysciences Inc., Warrington, Pa.) for 30 min. Cell membranes were stained with wheat germ agglutinin, Alexa Fluor 488 conjugates (WGA-AF488, Invitrogen, Carlsbad, Calif.) following the manufacturer's protocol. The cover slips were then mounted on microscope slides using Prolong Gold anti-fade solution (Invitrogen, Carlsbad, Calif.) containing DAPI for cell nuclei staining. Images were acquired on an inverted fluorescent microscope (Nikon Instruments, Melville, N.Y.) with the appropriate filters using a Nikon Ril Color Cooled Camera System and 60× oil objective Lens. For internalization pathway experiment, cells were treated with DOX or NP-DOX in the presence of 0.25 mM calcein for 4 hrs. […] DOX and calcein uptake were analyzed using confocal microscopy (Zeiss 510 Meta).

## COc1cccc2c1C(=O)c1c(O)c3c(c(O)c1C2=O)C[C@@](O)(C(=O)CO)C[C@@H]3O[C@H]1C[C@H](N)[C@H](O)[C@H](C)O1.Cl [free DOX, Doxorubicin.HCl]
C6-ADR cells [1]; 24 h after treatment
  intracellular concentration of DOX: 0.13±0.01 pg/cell
C6-ADR cells [1]; by 24 h after initial exposure
  decrease of intracellular DOX concentration: 91%
C6-ADR cells [1]; four hours after treatment
  intracellular concentration of DOX: 1.49±0.05 pg/cell
C6-ADR cells [2]; C6-ADR cells treated 4 h, imaged 24 h after initial incubation
  intracellular DOX fluorescence: minimal fluorescence
C6-ADR cells [2]; C6-ADR cells, 4 h incubation, confocal
  intracellular localization of DOX signal (calcein-labeled endosomes): partially colocalized with nucleus and partially localized in cytoplasma
